Source: ChEMBL document CHEMBL4229336, “Identification of (1S,4S)-2,5-diazabicyclo[2.2.1]heptane-dithiocarbamate-nitrostyrene hybrid as potent antiproliferative and apoptotic inducing agent against cervical cancer cell lines” (Eur J Med Chem, 2018)
Calls of active or inactive are those of the source. The rule behind the calls is not given here.

What was measured:
HeLa [1] = experiment: Cytotoxicity against human HeLa cells assessed as induction of necrosis at antiproliferative IC50 after 24 hrs by LDH release assay relative to control; format: cell-based
[2] = Cytotoxicity against human ViBo cells assessed as induction of necrosis at antiproliferative IC50 after 24 hrs by LDH release assay relative to control; format: cell-based
Ca-Ski [3] = experiment: Cytotoxicity against human CaSki cells assessed as induction of necrosis at antiproliferative IC50 after 24 hrs by LDH release assay relative to control; format: cell-based
Ca-Ski [4] = experiment: Antiproliferative activity against human CaSki cells after 24 hrs by crystal violet staining-based assay; format: functional, cell-based
[5] = (§1) Antiproliferative activity against human ViBo cells after 24 hrs by crystal violet staining-based assay; format: functional, cell-based
Homo sapiens [6] = organism: Homo sapiens; experiment: as §1; format: functional, cell-based
HeLa [7] = experiment: Antiproliferative activity against human HeLa cells after 24 hrs by crystal violet staining-based assay; format: functional, cell-based
[8] = Induction of apoptosis in human ViBo cells assessed as caspase3 activity at antiproliferative IC50 after 24 hrs by FITC staining-based FACS analysis (reference value: 5%); format: functional
Ca-Ski [9] = experiment: Induction of apoptosis in human CaSki cells assessed as caspase3 activity at antiproliferative IC50 after 24 hrs by FITC staining-based FACS analysis (reference value: 5%); format: functional
HeLa [10] = experiment: Induction of apoptosis in human HeLa cells assessed as caspase3 activity at antiproliferative IC50 after 24 hrs by FITC staining-based FACS analysis (reference value: 3%); format: functional
HeLa [11] = experiment: Induction of apoptosis in human HeLa cells assessed as chromatin condensation at antiproliferative IC50 by DAPI staining-based epifluorescence microscopic analysis; format: functional, cell-based
Ca-Ski [12] = experiment: Cell cycle analysis in human CaSki cells assessed as accumulation of cells at G2/M phase at antiproliferative IC50 after 24 hrs by propidium iodide staining-based flow cytometric analysis (reference value: 16.59%); format: functional
Ca-Ski [13] = experiment: Cell cycle analysis in human CaSki cells assessed as accumulation of cells at S phase at antiproliferative IC50 after 24 hrs by propidium iodide staining-based flow cytometric analysis (reference value: 10.12%); format: functional
Lymphocyte [14] = experiment: Cytotoxicity in enriched human lymphocytes assessed as induction of necrosis by measuring LDH release at 2.36 uM after 72 hrs by LDH release assay; format: cell-based
[15] = Cell cycle analysis in human ViBo cells assessed as accumulation of cells at G1 phase at antiproliferative IC50 after 24 hrs by propidium iodide staining-based flow cytometric analysis (reference value: 66.69%); format: functional
HeLa [16] = experiment: Cell cycle analysis in human HeLa cells assessed as accumulation of cells at G1 phase at antiproliferative IC50 after 24 hrs by propidium iodide staining-based flow cytometric analysis (reference value: 69.25%); format: functional
Homo sapiens [17] = organism: Homo sapiens; experiment: Induction of apoptosis in human ViBo cells assessed as chromatin condensation at antiproliferative IC50 by DAPI staining-based epifluorescence microscopic analysis; format: functional, cell-based
HeLa [18] = experiment: Cell cycle analysis in human HeLa cells assessed as accumulation of cells at S phase at antiproliferative IC50 after 24 hrs by propidium iodide staining-based flow cytometric analysis (reference value: 10.37%); format: functional
[19] = Cell cycle analysis in human ViBo cells assessed as accumulation of cells at G2/M phase at antiproliferative IC50 after 24 hrs by propidium iodide staining-based flow cytometric analysis (reference value: 16.20%); format: functional
Lymphocyte [20] = experiment: Cytotoxicity in enriched human lymphocytes assessed as induction of necrosis by measuring LDH release at 0.99 uM after 72 hrs by LDH release assay; format: cell-based
Lymphocyte [21] = experiment: Cytotoxicity in enriched human lymphocytes assessed as induction of necrosis by measuring LDH release at 0.73 uM after 72 hrs by LDH release assay; format: cell-based
HeLa [22] = experiment: Induction of apoptosis in human HeLa cells assessed as caspase3 activation at antiproliferative IC50 after 24 hrs by FITC/DAPI staining-based fluorescence microscopic analysis; format: functional, cell-based
Homo sapiens [23] = organism: Homo sapiens; experiment: Induction of apoptosis in human ViBo cells assessed as caspase3 activation at antiproliferative IC50 after 24 hrs by FITC/DAPI staining-based fluorescence microscopic analysis; format: functional, cell-based
HeLa [24] = experiment: Induction of apoptosis in human HeLa cells assessed as formation of apoptotic bodies at antiproliferative IC50 by DAPI staining-based epifluorescence microscopic analysis; format: functional, cell-based
Homo sapiens [25] = organism: Homo sapiens; experiment: Induction of apoptosis in human ViBo cells assessed as formation of apoptotic bodies at antiproliferative IC50 by DAPI staining-based epifluorescence microscopic analysis; format: functional, cell-based
[26] = Cell cycle analysis in human ViBo cells assessed as accumulation of cells at S phase at antiproliferative IC50 after 24 hrs by propidium iodide staining-based flow cytometric analysis (reference value: 11.67%); format: functional
Ca-Ski [27] = experiment: Induction of apoptosis in human CaSki cells assessed as chromatin condensation at antiproliferative IC50 by DAPI staining-based epifluorescence microscopic analysis; format: functional, cell-based
Lymphocyte [28] = experiment: Induction of cell proliferation of enriched human lymphocytes assessed as cell proliferation level at 2.36 uM after 72 hrs by CFSE staining-based flow cytometric analysis (reference value: 73.36%)
Lymphocyte [29] = experiment: Induction of cell proliferation of enriched human lymphocytes assessed as cell proliferation level at 0.73 uM after 72 hrs by CFSE staining-based flow cytometric analysis (reference value: 73.36%)
Ca-Ski [30] = experiment: Induction of apoptosis in human CaSki cells assessed as formation of apoptotic bodies at antiproliferative IC50 by DAPI staining-based epifluorescence microscopic analysis; format: functional, cell-based
Ca-Ski [31] = experiment: Cell cycle analysis in human CaSki cells assessed as accumulation of cells at G1 phase at antiproliferative IC50 after 24 hrs by propidium iodide staining-based flow cytometric analysis (reference value: 69.31%); format: functional
Ca-Ski [32] = experiment: Induction of apoptosis in human CaSki cells assessed as caspase3 activation at antiproliferative IC50 after 24 hrs by FITC/DAPI staining-based fluorescence microscopic analysis; format: functional, cell-based
HeLa [33] = experiment: Cell cycle analysis in human HeLa cells assessed as accumulation of cells at G2/M phase at antiproliferative IC50 after 24 hrs by propidium iodide staining-based flow cytometric analysis (reference value: 17.19%); format: functional
Lymphocyte [34] = experiment: Induction of cell proliferation of enriched human lymphocytes assessed as cell proliferation level at 0.99 uM after 72 hrs by CFSE staining-based flow cytometric analysis (reference value: 73.36%)

Compound `Cc1ccc(C(C[N+](=O)[O-])SC(=S)N2C[C@@H]3C[C@H]2CN3C(=O)OC(C)(C)C)cc1` (stereo partly drawn) has an Activity (HeLa [1]) of 0%, an Activity [2] of 5% and an Activity (Ca-Ski [3]) of 2%. The Activity (Ca-Ski [4]) was “Dose-dependent effect”, the IC50 (Ca-Ski [4]) was 5.94 µM and the IC50 [5] was 3.19 µM. The Activity (Homo sapiens [6]) was “Dose-dependent effect”, the Activity (HeLa [7]) was “Dose-dependent effect” and the IC50 (HeLa [7]) was 5.52 µM.

For `CC(C)(C)OC(=O)N1CCN(C(=S)SC(C[N+](=O)[O-])c2ccccc2)CC1` (stereo not drawn), the Activity (HeLa [1]) was 0%, the Activity [2] was 0% and the Activity (Ca-Ski [3]) was 0%. It also gave an IC50 (Ca-Ski [4]) of 29.4 µM, an IC50 [5] of 19.2 µM and an IC50 (HeLa [7]) of 31.6 µM.

`CC(C)(C)OC(=O)N1C[C@@H]2C[C@H]1CN2C(=S)SC(C[N+](=O)[O-])c1ccc(Cl)cc1` (stereo partly drawn) showed an Activity (HeLa [1]) of 4%, an Activity [2] of 12% and an Activity (Ca-Ski [3]) of 15%. The Activity (Ca-Ski [4]) was “Dose-dependent effect”, the IC50 (Ca-Ski [4]) was 7.2 µM and the IC50 [5] was 2.4 µM. The Activity (Homo sapiens [6]) was “Dose-dependent effect”, the Activity (HeLa [7]) was “Dose-dependent effect” and the IC50 (HeLa [7]) was 5.67 µM.

`CC[C@@]1(O)C(=O)OCc2c1cc1n(c2=O)Cc2cc3ccccc3nc2-1` [CAMPTOTHECIN] gave an Activity [8] of 48%, an Activity (HeLa [1]) of 3% and an Activity (Ca-Ski [9]) of 62%. For the same compound, the Activity [2] was 0%, the Activity (HeLa [10]) was 29% and the Activity (Ca-Ski [3]) was 2%. It also gave an IC50 (Ca-Ski [4]) of 1.8 µM, an IC50 [5] of 1.92 µM and an IC50 (HeLa [7]) of 0.94 µM.

Compound `CC(C)(C)OC(=O)N1C[C@@H]2C[C@H]1CN2C(=S)SC(C[N+](=O)[O-])c1ccc(F)cc1` (stereo partly drawn) has an Activity (HeLa [1]) of 2%, an Activity [2] of 8% and an Activity (Ca-Ski [3]) of 5%. The Activity (Ca-Ski [4]) was “Dose-dependent effect”, the IC50 (Ca-Ski [4]) was 6.79 µM and the IC50 [5] was 6.56 µM. The Activity (Homo sapiens [6]) was “Dose-dependent effect”, the Activity (HeLa [7]) was “Dose-dependent effect” and the IC50 (HeLa [7]) was 7.92 µM.

In the case of `CC(C)(C)OC(=O)N1C[C@@H]2C[C@H]1CN2C(=S)SC(C[N+](=O)[O-])c1ccccc1` (stereo partly drawn), the Activity (HeLa [11]) is reported as “Active”, the Activity (Ca-Ski [12]) is reported as 14.35% and the Activity [8] is reported as 35%. The Activity (Ca-Ski [13]) was 10.49%, the Activity (Lymphocyte [14]) was “Non-Toxic” and the Activity [15] was 64.38%. The Activity (HeLa [1]) was 3%, the Activity (Ca-Ski [9]) was 42% and the Activity (HeLa [16]) was 70.26%. For the same compound, the Activity (Homo sapiens [17]) was “Active”, the Activity (HeLa [18]) was 10.68% and the Activity [19] was 20.48%. For the same compound, the Activity (Lymphocyte [20]) was “Non-Toxic”, the Activity (Lymphocyte [21]) was “Non-Toxic” and the Activity (HeLa [22]) was “Active”. For the same compound, the Activity [2] was 0%, the Activity (Homo sapiens [23]) was “Active” and the Activity (HeLa [24]) was “Active”. The Activity (Homo sapiens [25]) was “Active”, the Activity [26] was 10.05% and the Activity (Ca-Ski [27]) was “Active”. For the same compound, the Activity (Lymphocyte [28]) was 7.44%, the Activity (Lymphocyte [29]) was 64.02% and the Activity (Ca-Ski [30]) was “Active”. It also gave an Activity (HeLa [10]) of 36%, an Activity (Ca-Ski [3]) of 2% and an Activity (Ca-Ski [31]) of 72.29%. For the same compound, the Activity (Ca-Ski [32]) was “Active”, the Activity (Ca-Ski [4]) was “Dose-dependent effect” and the IC50 (Ca-Ski [4]) was 2.36 µM. The Activity (HeLa [33]) was 16.01%, the IC50 [5] was 0.73 µM and the Activity (Homo sapiens [6]) was “Dose-dependent effect”. For the same compound, the Activity (Lymphocyte [34]) was 62.38%, the Activity (HeLa [7]) was “Dose-dependent effect” and the IC50 (HeLa [7]) was 0.989 µM.

In the case of `COc1ccc(C(C[N+](=O)[O-])SC(=S)N2C[C@@H]3C[C@H]2CN3C(=O)OC(C)(C)C)cc1` (stereo partly drawn), the Activity (HeLa [1]) is reported as 0%, the Activity [2] is reported as 5% and the Activity (Ca-Ski [3]) is reported as 0%. For the same compound, the Activity (Ca-Ski [4]) was “Dose-dependent effect”, the IC50 (Ca-Ski [4]) was 6.17 µM and the IC50 [5] was 2.64 µM. The Activity (Homo sapiens [6]) was “Dose-dependent effect”, the Activity (HeLa [7]) was “Dose-dependent effect” and the IC50 (HeLa [7]) was 5.29 µM.

In the case of `CC(=O)O[C@H]1C(=O)[C@@]2(C)[C@H]([C@H](OC(=O)c3ccccc3)[C@]3(O)C[C@H](OC(=O)[C@H](O)[C@@H](NC(=O)c4ccccc4)c4ccccc4)C(C)=C1C3(C)C)[C@]1(OC(C)=O)CO[C@@H]1C[C@@H]2O` [PACLITAXEL], the IC50 (Ca-Ski [4]) is reported as 2.9 µM and the IC50 [5] is reported as 1.59 µM.

`CC(C)(C)OC(=O)N1C[C@@H]2C[C@H]1CN2C(=S)SC(C[N+](=O)[O-])c1ccc(C(F)(F)F)cc1` (stereo partly drawn) gave an Activity (HeLa [1]) of 5%, an Activity [2] of 0% and an Activity (Ca-Ski [3]) of 20%. For the same compound, the Activity (Ca-Ski [4]) was “Dose-dependent effect”, the IC50 (Ca-Ski [4]) was 6.1 µM and the IC50 [5] was 7.32 µM. For the same compound, the Activity (Homo sapiens [6]) was “Dose-dependent effect”, the Activity (HeLa [7]) was “Dose-dependent effect” and the IC50 (HeLa [7]) was 6.1 µM.
